“Also recorded” adds a separate entry of the source.
How the values were obtained:
[1] = Microsomal stability assay, human liver microsomes; type: in vitro ADME; conditions: for Liver microsomal stability, Human (percentage remaining after 30 min): 1 μM, n = 3; for metabolic stability improved by: human and rat liver microsomes, 30 min
Procedure: LC‒MS/MS was performed on a TSQ Vantage (Thermo, USA) coupled with a Nexera XR LC system (Shimadzu, Japan)[32]. The separation was performed on a Kinetex C18 column (2.1 × 100 mm, 2.6 µm, Phenomenex, USA) using a mobile phase of 0.1% formic acid and acetonitrile containing 0.1% formic acid. A gradient program was used for elution at a flow rate of 0.3 mL/min. The data were acquired using multiple-reaction monitoring (MRM) in positive mode.

[2] = Microsomal stability assay, rat liver microsomes; type: in vitro ADME; conditions: 1 μM, n = 3
Procedure: The incubation mixtures consisted of 0.5 mg/mL human (Corning, #452117) and rat liver microsomes (Corning, #452701), 0.1 M phosphate buffer (pH 7.4), NADPH regeneration system, and substrates (CRF1R antagonist compounds, 1 µM) in a total volume of 100 μL. […] LC‒MS/MS was performed on a TSQ Vantage (Thermo, USA) coupled with a Nexera XR LC system (Shimadzu, Japan)[32]. The separation was performed on a Kinetex C18 column (2.1 × 100 mm, 2.6 µm, Phenomenex, USA) using a mobile phase of 0.1% formic acid and acetonitrile containing 0.1% formic acid. A gradient program was used for elution at a flow rate of 0.3 mL/min. The data were acquired using multiple-reaction monitoring (MRM) in positive mode. Detection of the ions was performed by monitoring the m/z transition of 494.1 → 336.1 for BMK-I-152, 598.1 → 233.2 for BMK-C203, and 488.1 → 434.1 for BMK-C205.

[3] = target: T1, CYP2C9 (Homo sapiens, UniProt P11712); test: CYP inhibition assay CYP2C9 (diclofenac 4-hydroxylase); type: in vitro ADME; conditions: 10 μM, human liver microsomes, n = 3
T1 construct: 0.25 mg/mL human liver microsomes; from tissue; host or cells: human liver microsomes
T1 sequence (P11712 whole entry): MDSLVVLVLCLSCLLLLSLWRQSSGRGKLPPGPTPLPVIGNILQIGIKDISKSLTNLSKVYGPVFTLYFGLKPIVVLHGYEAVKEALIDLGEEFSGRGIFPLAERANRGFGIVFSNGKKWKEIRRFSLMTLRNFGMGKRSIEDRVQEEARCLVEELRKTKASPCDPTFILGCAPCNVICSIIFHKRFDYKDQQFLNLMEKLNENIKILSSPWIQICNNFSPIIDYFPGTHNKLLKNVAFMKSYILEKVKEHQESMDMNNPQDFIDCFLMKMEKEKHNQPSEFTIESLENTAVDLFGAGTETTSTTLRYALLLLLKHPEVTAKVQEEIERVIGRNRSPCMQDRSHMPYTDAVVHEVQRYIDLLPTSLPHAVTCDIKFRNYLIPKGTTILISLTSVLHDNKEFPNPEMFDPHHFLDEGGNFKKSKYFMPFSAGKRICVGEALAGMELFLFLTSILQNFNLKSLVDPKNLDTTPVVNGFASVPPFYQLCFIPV
Procedure: (§2) Phenacetin O-demethylase, diclofenac 4-hydroxylase, S-mephenytoin 4-hydroxylase, dextromethorphan O-demethylase, and midazolam 1’-hydroxylase activities were determined as probe activities for CYP1A2, CYP2C9, CYP2C19, CYP2D6, and CYP3A4, respectively, using cocktail incubation. […] The cocktail incubation mixtures consisted of 0.25 mg/mL human liver microsomes, 0.1 M phosphate buffer (pH 7.4), an NADPH regeneration system, and inhibitors (CRF1R antagonist compounds, 10 µM) in a total volume of 100 μL. The final volume of the organic solvents in the incubation mixture was 1% (v/v). […] All incubations were performed in triplicate, and the mean values were used for analysis. The samples were then centrifuged at 15,000 rpm for 5 min at 4 °C. […] The CYP-mediated activities in the presence of inhibitors were expressed as percentages of the corresponding control values.

[4] = test system: C57BL/6J mice; test: Tail suspension test (TST); type: in vivo; conditions: 30 mg/kg orally for 3 days, test 2 h after third dose, last 4 min of 6 min
Procedure: C57BL/6J mice (male, 9–10 weeks old) were used for the behavioral tests. All mice were maintained under a 12:12-h light–dark cycle (lights on at 7:00 A.M.) with access to food and water ad libitum. Animal care and handling were performed according to guidelines by the Institutional Animal Care and Use Committee of Yonsei University (Seoul, Korea). Antalarmin, BMK-C203, and BMK-C205 were dissolved in peceol: TPGS: PEG400 (vehicle) (70%:20%:10%, respectively) and administered orally at a dose of 30 mg/kg for 3 days at 24-h intervals. All behavioral tests were conducted 2 h after the third drug was administered during light periods of the circadian cycle. TSTs were performed to verify the effect of CRF1R antagonists on depressive-like behavior. Each mouse was suspended by its tail on a bar 30 cm above the ground for 6 min using adhesive tape. Their movements were recorded by a camera and analyzed using the same parameters via EthoVision XT 8.5 software (Noldus Technologies). Immobility times during the last 4 min of the task were measured. Each mouse was placed in an open field (40 cm × 40 cm × 40 cm chamber) for 1 h to conduct an open field test (OFT) and test locomotion. Their locomotion was recorded and analyzed using EthoVision XT 8.5.

[5] = test system: ACTH serum levels; test: Serum ACTH level after TST (ELISA); type: in vivo, mice; conditions: 30 mg/kg orally for 3 days, immediately after TST
Procedure: (§1) The mice were anesthetized via intraperitoneal injections of 2,2,2-tribromoethanol (300 mg/kg, Sigma-Aldrich) immediately after the TST and before blood from the heart was sampled. Blood samples were collected in plastic tubes and incubated at room temperature for at least 2 h. The sera were extracted after centrifugation at 13,000×g for 10 min at 4 °C. CORT levels were determined via LC‒MS analysis. Serum (10 µL) was mixed with 20 μL of an internal standard solution (d4-cortisol) to prepare the samples. Subsequently, 100 μL of acetonitrile was added, and the mixture was centrifuged at 16,000×g for 10 min for protein precipitation. The supernatants (60 μL) were transferred into an autosampler vial, and 30 μL of water was added for efficient separation via high-performance liquid chromatography (HPLC). LC‒MS was performed with a triple quadrupole mass spectrometer coupled with HPLC using a C18 reversed-phase column. CORT levels were determined using a calibration curve constructed using CORT-spiked mouse serum. Serum samples (20 μL) were analyzed using a commercially available ELISA kit for ACTH (ab263880, Abcam) to measure ACTH serum levels.

[6] = test system: CORT serum levels; test: Serum CORT level after TST (LC-MS); type: in vivo, mice; conditions: 30 mg/kg orally for 3 days, immediately after TST
Procedure: as §1

[7] = In vitro BBB permeability assay; type: in vitro ADME, human; conditions: human; 10 μM apical, 12-h incubation, hCMEC/D3 monolayer; read-out: permeability coefficient
Procedure: Human cerebral microvascular endothelial cells (hCMECs/D3, SCC066; Sigma-Aldrich) were used to assess the permeability of CRF1R antagonists across the BBB. hCMECs were seeded on Falcon^TM cell culture inserts (08-770, Fisher Scientific) with 0.4 μm pore sizes precoated with collagen type I from rat tails (354236, Corning) at a density of 50,000 cells/mL in endothelial cell growth medium-2 (EGM-2, CC-3162; Lonza). The medium was changed with EGM-2 every three to four days for proliferation and with EGM-2 containing 2.5% human serum (SLBX6020, Sigma-Aldrich) for differentiation. Cell culture inserts were transferred into 24-well plates containing 700 μL of EGM-2 in each well (basolateral compartment) for the permeability assay. The medium in the inserts (apical compartment) was then replaced with 300 μL EGM-2 containing 10 μM BMK-C203 or BMK-C205. Apical and basolateral compartments were collected after a 12-h incubation at 37 °C, and drug concentrations were measured using HPLC. For sample preparation, 50 μL of the sample was mixed with 10 μL of an internal standard solution (d4-cortisol). Subsequently, 50 μL of acetonitrile was added, and the mixture was centrifuged at 16,000×g for 10 min for protein precipitation. The supernatants were used for LC‒MS analysis with a triple quadrupole mass spectrometer coupled with HPLC using a C18 reversed-phase column. The concentration of the antagonists was determined using a calibration curve. The permeability coefficient (P) was calculated according to Pardridge et al.[34]. The permeability-surface area product (PS, in cm^3/s) was divided by the filter surface area A (in cm^2) using Eq. (1) as follows:1 Pcm/s=Vd×△Ma/A×[…]×△t where Vd is the volume in the donor compartment in cm^3, ΔMa is the total amount of the compound in the […] compartment after t seconds, Md is the donor amount, Δt is the incubation time, and A is the filter area in cm^2.

[8] = target: CYP2D6 (Homo sapiens, UniProt P10635); test: CYP inhibition assay CYP2D6 (dextromethorphan O-demethylase); conditions: 10 μM, human liver microsomes, n = 3
CYP2D6, sequence (P10635 whole entry): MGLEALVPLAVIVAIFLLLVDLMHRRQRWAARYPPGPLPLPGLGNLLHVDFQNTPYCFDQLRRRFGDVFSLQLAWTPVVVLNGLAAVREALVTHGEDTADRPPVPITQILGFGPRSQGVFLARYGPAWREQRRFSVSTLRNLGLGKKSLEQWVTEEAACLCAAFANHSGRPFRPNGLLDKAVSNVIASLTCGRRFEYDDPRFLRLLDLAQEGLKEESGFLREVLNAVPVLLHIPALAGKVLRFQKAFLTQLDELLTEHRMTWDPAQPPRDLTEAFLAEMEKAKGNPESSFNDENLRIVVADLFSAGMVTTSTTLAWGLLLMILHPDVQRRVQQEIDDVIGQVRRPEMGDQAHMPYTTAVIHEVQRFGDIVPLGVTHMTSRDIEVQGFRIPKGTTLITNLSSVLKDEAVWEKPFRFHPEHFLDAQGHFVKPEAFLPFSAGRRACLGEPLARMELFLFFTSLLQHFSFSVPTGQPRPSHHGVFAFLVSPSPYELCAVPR
Procedure: as §2

Compound | Liver microsomal stability, Human (percentage remaining after 30 min) [1] [%] | metabolic stability improved by [1] | Liver microsomal stability, Rat (percentage remaining after 30 min) [2] [%] | CYP2C9, percentage of control activity [3] | TST immobility time versus vehicle [4] | serum ACTH level versus vehicle [5] | serum CORT level versus vehicle [6] | Papp at 12 h, 10 µM [7] [×10⁻⁶ cm/s] | CYP2D6, percentage of control activity [8]
COc1cc(Br)cc(OC)c1-c1c(C)nn2c(N(CCCC(F)(F)F)CCCC(F)(F)F)nc(C)nc12 [BMK-C203] | 88.3 ± 16.71 | more than 90% | 97.1 ± 8.81 | 94.9 ± 1.9 percentage of control activity | did not significantly affect | decreased; also recorded: lower than those in the vehicle group; also recorded: significantly affected | did not significantly affect | 0.0296 | > 100 ± 4.0 percentage of control activity
CCCCN(CC1CC1)c1nc(C)nc2c(-c3c(OC)cc(Br)cc3OC)c(C)nn12 [BMK-C205] | 88.0 ± 4.50 | more than 90% | 89.4 ± 2.07 | 89.8 ± 2.4 percentage of control activity | significantly decreased; also recorded: more mobile than the vehicle group | decreased; also recorded: lower than those in the vehicle group | decreased | 0.211 | > 100 ± 3.8 percentage of control activity
